# From ChEMBL document CHEMBL4033647, “Novel coumarin- and quinolinone-based polycycles as cell division cycle 25-A and -C phosphatases inhibitors induce proliferation arrest and apoptosis in cancer cells” (Eur J Med Chem, 2017)
# Activity calls are given as the source filed them. The calls are words filed in the database; no cut-off is given here.
# What was measured:
# A-431 [1] = assay: Cell cycle arrest in human A431 cells assessed as accumulation at G1 phase at 10 uM after 24 hrs by propidium iodide staining based flow cytometric analysis (reference value: 53.04%); type: functional
# [2] = biological target: T1, M-phase inducer phosphatase 3 (Homo sapiens, UniProt P30307); assay: Inhibition of recombinant human full length GST-tagged CDC25C expressed in Escherichia coli BL21-DE3 pLysS using 3-O-methylfluorescein phosphate as substrate after 2 hrs by fluorimetric analysis
# T1 sequence (P30307 whole entry): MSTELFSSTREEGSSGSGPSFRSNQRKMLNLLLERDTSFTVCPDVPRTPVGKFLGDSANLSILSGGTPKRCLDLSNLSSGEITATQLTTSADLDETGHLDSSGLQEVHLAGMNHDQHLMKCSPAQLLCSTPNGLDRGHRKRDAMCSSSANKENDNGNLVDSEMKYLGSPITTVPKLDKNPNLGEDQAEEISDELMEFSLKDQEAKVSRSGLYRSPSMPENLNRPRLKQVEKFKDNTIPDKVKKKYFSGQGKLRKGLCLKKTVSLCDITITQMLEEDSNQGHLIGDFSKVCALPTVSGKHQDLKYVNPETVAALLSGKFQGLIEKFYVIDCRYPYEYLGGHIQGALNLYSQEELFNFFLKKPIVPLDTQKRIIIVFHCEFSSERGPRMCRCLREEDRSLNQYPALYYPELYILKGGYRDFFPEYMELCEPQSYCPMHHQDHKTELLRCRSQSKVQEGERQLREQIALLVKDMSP
# [3] = biological target: T2, M-phase inducer phosphatase 1 (Homo sapiens, UniProt P30304); assay: Inhibition of recombinant human full length GST-tagged CDC25A expressed in Escherichia coli BL21-DE3 pLysS using 3-O-methylfluorescein phosphate as substrate after 2 hrs by fluorimetric analysis
# T2 sequence (P30304 whole entry): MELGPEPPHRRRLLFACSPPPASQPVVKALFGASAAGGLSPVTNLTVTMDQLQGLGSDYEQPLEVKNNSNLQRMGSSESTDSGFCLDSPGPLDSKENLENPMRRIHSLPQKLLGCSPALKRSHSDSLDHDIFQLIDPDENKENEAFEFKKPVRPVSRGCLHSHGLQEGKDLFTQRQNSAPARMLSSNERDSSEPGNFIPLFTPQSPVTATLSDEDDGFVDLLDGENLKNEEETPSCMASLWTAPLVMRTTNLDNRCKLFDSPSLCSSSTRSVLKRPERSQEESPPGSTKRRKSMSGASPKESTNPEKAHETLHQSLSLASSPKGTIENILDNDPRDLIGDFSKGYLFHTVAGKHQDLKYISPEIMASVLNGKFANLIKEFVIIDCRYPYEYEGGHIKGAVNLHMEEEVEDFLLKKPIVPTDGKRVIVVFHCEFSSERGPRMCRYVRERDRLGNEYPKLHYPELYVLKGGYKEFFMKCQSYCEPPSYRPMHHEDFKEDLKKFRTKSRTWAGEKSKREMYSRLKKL
# MCF7 = assay: Cytotoxicity against human MCF7 cells assessed as reduction in cell viability after 72 hrs by MTT assay; type: functional, cell-based; conditions: MCF7, 72 h
# A-431 [4] = assay: Induction of apoptosis in human A431 cells assessed as caspase-3 cleavage at 50 uM after 24 hrs by Western blot analysis; type: functional, cell-based
# Hs 683 = assay: Cytotoxicity against human Hs683 cells assessed as reduction in cell viability after 72 hrs by MTT assay; type: functional, cell-based; conditions: Hs 683, 72 h
# A-431 [5] = assay: Cell cycle arrest in human A431 cells assessed as accumulation at subG1 phase at 10 uM after 24 hrs by propidium iodide staining based flow cytometric analysis (reference value: 3.40%); type: functional
# PC-3 = assay: Cytotoxicity against human PC3 cells assessed as reduction in cell viability after 72 hrs by MTT assay; type: functional, cell-based; conditions: PC-3, 72 h
# A-431 [6] = assay: Cell cycle arrest in human A431 cells assessed as accumulation at G1 phase at 50 uM after 24 hrs by propidium iodide staining based flow cytometric analysis (reference value: 53.04%); type: functional
# A-431 [7] = assay: Effect on CDC25C splice variant protein expression in human A431 cell extract at 50 uM after 24 hrs by Western blot analysis; type: functional, cell-based
# A-431 [8] = assay: Cell cycle arrest in human A431 cells assessed as accumulation at S phase at 50 uM after 24 hrs by propidium iodide staining based flow cytometric analysis (reference value: 17.33%); type: functional
# [9] = biological target: T3, M-phase inducer phosphatase 3 (Homo sapiens) (UniProt P30307); conditions: 10 to 50 uM
# T3 sequence (whole entry): T1 sequence (P30307 whole entry)
# Description: Inhibition of CDC25C in human A431 cells assessed as increase in CDK-mediated phosphorylation of histone H3 at Ser10 residues at 10 to 50 uM after 24 hrs by Western blot analysis
# [10] = biological target: T4, M-phase inducer phosphatase 2 (Homo sapiens, UniProt P30305); assay: Inhibition of recombinant human GST-tagged truncated CDC25B expressed in bacterial expression system using 3-O-methylfluorescein phosphate as substrate after 2 hrs by fluorimetric analysis
# T4 sequence (P30305 whole entry): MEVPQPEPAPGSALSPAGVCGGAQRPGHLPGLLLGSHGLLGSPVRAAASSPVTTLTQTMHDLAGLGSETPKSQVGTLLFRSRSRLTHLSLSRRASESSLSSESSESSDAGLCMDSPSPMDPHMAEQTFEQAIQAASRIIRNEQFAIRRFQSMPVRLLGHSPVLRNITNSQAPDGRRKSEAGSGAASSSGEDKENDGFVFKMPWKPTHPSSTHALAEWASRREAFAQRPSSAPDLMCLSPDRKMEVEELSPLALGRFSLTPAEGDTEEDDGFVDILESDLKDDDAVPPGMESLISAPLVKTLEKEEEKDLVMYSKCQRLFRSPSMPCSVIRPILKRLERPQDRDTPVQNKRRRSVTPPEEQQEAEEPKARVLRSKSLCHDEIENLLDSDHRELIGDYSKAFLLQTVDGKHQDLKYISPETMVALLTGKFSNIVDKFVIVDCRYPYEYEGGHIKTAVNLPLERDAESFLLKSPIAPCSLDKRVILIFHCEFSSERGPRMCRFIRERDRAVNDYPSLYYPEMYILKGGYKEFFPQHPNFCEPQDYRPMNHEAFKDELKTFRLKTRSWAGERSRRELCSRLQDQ
# A-431 [11] = assay: Cell cycle arrest in human A431 cells assessed as accumulation at S phase at 10 uM after 24 hrs by propidium iodide staining based flow cytometric analysis (reference value: 17.33%); type: functional
# A-431 [12] = assay: Cell cycle arrest in human A431 cells assessed as accumulation at G2/M phase at 10 uM after 24 hrs by propidium iodide staining based flow cytometric analysis (reference value: 26.23%); type: functional
# SK-MEL-28 = assay: Cytotoxicity against human SK-MEL-28 cells assessed as reduction in cell viability after 72 hrs by MTT assay; type: functional, cell-based; conditions: SK-MEL-28, 72 h
# A-431 [13] = assay: Cell cycle arrest in human A431 cells assessed as accumulation at subG1 phase at 50 uM after 24 hrs by propidium iodide staining based flow cytometric analysis (reference value: 3.40%); type: functional
# A-431 [14] = assay: Decrease in CDC25C protein expression level in human A431 cell extract at 50 uM after 24 hrs by Western blot analysis; type: functional, cell-based
# [15] = Cytotoxicity against human U373n cells assessed as reduction in cell viability after 72 hrs by MTT assay; type: functional, cell-based
# A-431 [16] = assay: Cytotoxicity against human A431 cells assessed as reduction in cell viability after 24 hrs by MTT assay; type: functional, cell-based; conditions: A-431, 24 h
# [17] = biological target: T3, M-phase inducer phosphatase 3 (Homo sapiens); assay: Inhibition of CDC25C in human A431 cells assessed as increase in phosphorylation of CDK1 at Thr14/Tyr15 residues at 50 uM after 24 hrs by Western blot analysis; type: cell-based
# A-431 [18] = assay: Cell cycle arrest in human A431 cells assessed as accumulation at G2/M phase at 50 uM after 24 hrs by propidium iodide staining based flow cytometric analysis (reference value: 26.23%); type: functional
# A549 = assay: Cytotoxicity against human A549 cells assessed as reduction in cell viability after 72 hrs by MTT assay; type: functional, cell-based; conditions: A549, 72 h
# A-431 [19] = assay: Induction of apoptosis in human A431 cells assessed as PARP cleavage at 10 uM after 24 hrs by Western blot analysis; type: functional, cell-based
# [20] = biological target: T3, M-phase inducer phosphatase 3 (Homo sapiens); assay: Inhibition of CDC25C in human A431 cells assessed as decrease in CDK-mediated phosphorylation of histone H3 at Ser10 residues at 50 uM after 24 hrs by Western blot analysis; type: cell-based
# A-431 [21] = assay: Induction of apoptosis in human A431 cells assessed as caspase-3 cleavage at 10 uM after 24 hrs by Western blot analysis; type: functional, cell-based
# A-431 [22] = assay: Growth inhibition of human A431 cells at 10 uM by trypan blue dye based assay; type: functional, cell-based; conditions: TDE = time-dependent effect
# A-431 [23] = assay: Cell cycle arrest in human A431 cells after 24 hrs by propidium iodide staining based flow cytometric analysis; type: functional
# A-431 [24] = assay: Cytotoxicity against human A431 cells assessed as reduction in cell viability at 10 uM after 24 hrs by MTT assay; type: functional
# [25] = biological target: T3, M-phase inducer phosphatase 3 (Homo sapiens); assay: Inhibition of CDC25C in human A431 cells assessed as increase in CDK-mediated phosphorylation of histone H3 at Ser10 residues at 10 uM after 24 hrs by Western blot analysis; type: cell-based
# A-431 [26] = assay: Cytotoxicity against human A431 cells assessed as cell viability at 10 uM after 48 hrs by MTT assay; type: functional; conditions: A-431, 48 h, read-out: Activity
# [27] = Potency index, ratio of NSC95397 IC50 to compound IC50 against human U373n cells; type: functional
IC50 [2],IC50 [3],inhibition [17],Structure (SMILES),Activity (A-431 [1]),IC50 (MCF7),IC50 (Hs 683),Activity (A-431 [5]),IC50 (PC-3),Activity (A-431 [6]),Activity (A-431 [7]),Activity (A-431 [8]),Activity (A-431 [11]),Activity (A-431 [12]),IC50 (SK-MEL-28),Activity (A-431 [13]),Activity (A-431 [14]),IC50 [15],IC50 (A-431 [16]),Activity (A-431 [18]),IC50 (A549),other results
2.3 µM,5.8 µM,Active,O=C1C=CC(=O)c2c1ccc1c2c(=O)oc2ccccc21,45.05%,16 µM,20 µM,6.85%,32 µM,42.38%,Active,11.39%,18.71%,29.39%,29 µM,16.51%,Active,18 µM,16 µM,29.72%,26 µM,Activity (A-431 [4]): Active; inhibition [9]: Active; IC50 [10]: 14.4 µM
5.72 µM,4.33 µM,inactive,O=C1C=CC(=O)c2c1ccc1c2c(=O)[nH]c2ccc(Cl)cc21,44.5%,1.2 µM,0.2 µM,15.46%,0.3 µM,31.53%,Active,7.07%,13.39%,26.65%,0.3 µM,33.63%,Active,0.1 µM,3.13 µM,27.78%,0.3 µM,Activity (A-431 [19]): Active; inhibition [20]: inactive; Activity (A-431 [21]): Active; growth inhibition (GI) (A-431 [22]): Tde; Activity (A-431 [23]): Dose-dependent effect; Activity (A-431 [24]): >60%; inhibition [25]: Active; viability at 10 µM (A-431 [26]): 10%; Ratio IC50 [27]: 18.5
